According to publication PMC2062997, “Effects of impaired renal function on the pharmacokinetics of raltitrexed (Tomudex ZD1694)” (British Journal of Cancer, 1998):

Legend:
[1] = Single-dose plasma pharmacokinetics of raltitrexed in cancer patients (radioimmunoassay, three-compartment model); format: in vivo, human
Method: British Journal of Cancer (1 998) 78(9). 1188-1193 C 1998 Cancer Research Campaign Effects of impaired renal function on the pharmacokinetics of raltitrexed (Tomudex ZDI 694) I Judson', T Maughan2, P Beale', J Primrose3, P Hoskin4, J HanweIll, C Berry1, M Walker5 and F Sutcliffe5 lInstitute of Cancer Research. Sutton, Surrey SM2 5NG, UK; Welindre Hospital, Whitchurch. Cardiff CF4, UK; 3Souftampton General Hospital, Southampton S09 4XY. UK: 'Mount Vernon Hospital, Middlesex HA6 2RN. UK; 5Zeneca Pharmaceutcals Macclesfield. Cheshire SK10 4TG. UK Summary This open-label, non-randomized, parallel-group trial investigated the pharmacokinetics of raltitrexed (Tomudex, formerly ZD1 694) after a single intravenous dose of 3.0 mg m-2, comparing eight cancer patients with mild to moderate renal impairment (creatinine clearance 25-65 ml min-') with eight cancer patients with normal renal function (creatinine clearance >65 ml min-'). The primary end points were area under the plasma raltitrexed concentration-vime curve from the start of the infusion to the last determined concentration (AUCo_) and AUC to infinity (AUCo); secondary end points were peak corncentrations of ralftitrexed (C,n,) and elimination half-life (t,>). The groups were compared statistically using analysis of covariance. The AUCs were greater for patients with renal impairment than for patients with normal renal function (2452.2 compared with 1247.3 ng h ml-' for AUCo._. (ratio 1.97; 95% Cl 1.36-2.84); 2961.5 compared with 1457.0 ng h ml-' for AUCo_ (ratio 2.03; 1.25-3.29). These differences were statistically significant (P = 0.002 and P = 0.008 for AUC, and AUCo_ respectively. Terminal half-life was longer for the renally impaired patients (271.2 compared with 143.3; P = 0.030). There was no significant statistical difference between the groups for C, (652.9 compared with 564.7 ng ml-' for patients with impaired and normal renal function respectively: ratio 1.16; 0.91-1.46; P=0.204). There was a clear relationship between raltfitrexed clearance and creatinine clearance. Adverse events, severe (WHO grade 3 or 4) toxicity and hospitalization due to adverse events were more frequent in the group with renal impairment. Therefore, a reduction in ralftitrexed dose and increased interval between doses is recommended for patients with mild to moderate renal impairment. Keywords: pharmacokinetics; thymidylate synthase; phase I trial; raltitrexed; renal impairment Raltitrexed (Tomudex. ZD1694: Zeneca Limited) is a cytotoxic agent w-hich acts by direct and specific inhibition of thymidydlate synthase. the enzyme catalysing a critical step in de novo DNA synthesis. i.e. the production of thymidine monophosphate from deoxvuridine monophosphate. Some clinically effective anti- cancer agents. such as 5-fluorouracil and methotrexate. act in part by inhibiting thymidylate synthase but also have effects on other enzyme pathways. xvhich may contribute to their anti-tumour activity and obserned toxicity profiles. Raltitrexed inhibits thymidylate synthase selectively in vitro (Jackman et al. 1991). […] The poly- glutamates are retained in cells and cause prolonged inhibition of th midv late synthase. which leads to DNA fragmentation and cell death. […] The mean apparent half-life of the terminal (gamma) phase (tl, ,) was 50-lOO h (Clarke et al. 1996). This prolonged t1, may represent hydrolysis of the polvalutamated Received 17 November 1997 Revised 4 Apnl 1998 Accepted 14 Apnl 1998 Correspondence to: IR Judson, CRC Centre for Cancer Therapeutics. The Institute of Cancer Research. Block E. 15 Cotswold Road. Belmont. Sutton. Surrey SM2 5NG. UK forms and release of raltitrexed from tissues into the circulation. and allow s the druc to be administered as a single dose once ev er 3 weeks. In the phase I trial. a dose and schedule of 3.0mg m-' every 3 weeks was identified as suitable for phase H inxvestigation. […]

[2] = Safety: adverse events and WHO-graded toxicity in cancer patients; format: in vivo
Method: British Journal of Cancer (1 998) 78(9). 1188-1193 C 1998 Cancer Research Campaign Effects of impaired renal function on the pharmacokinetics of raltitrexed (Tomudex ZDI 694) I Judson', T Maughan2, P Beale', J Primrose3, P Hoskin4, J HanweIll, C Berry1, M Walker5 and F Sutcliffe5 lInstitute of Cancer Research. Sutton, Surrey SM2 5NG, UK; Welindre Hospital, Whitchurch. Cardiff CF4, UK; 3Souftampton General Hospital, Southampton S09 4XY. UK: 'Mount Vernon Hospital, Middlesex HA6 2RN. UK; 5Zeneca Pharmaceutcals Macclesfield. Cheshire SK10 4TG. UK Summary This open-label, non-randomized, parallel-group trial investigated the pharmacokinetics of raltitrexed (Tomudex, formerly ZD1 694) after a single intravenous dose of 3.0 mg m-2, comparing eight cancer patients with mild to moderate renal impairment (creatinine clearance 25-65 ml min-') with eight cancer patients with normal renal function (creatinine clearance >65 ml min-'). The primary end points were area under the plasma raltitrexed concentration-vime curve from the start of the infusion to the last determined concentration (AUCo_) and AUC to infinity (AUCo); secondary end points were peak corncentrations of ralftitrexed (C,n,) and elimination half-life (t,>). The groups were compared statistically using analysis of covariance. The AUCs were greater for patients with renal impairment than for patients with normal renal function (2452.2 compared with 1247.3 ng h ml-' for AUCo._. (ratio 1.97; 95% Cl 1.36-2.84); 2961.5 compared with 1457.0 ng h ml-' for AUCo_ (ratio 2.03; 1.25-3.29). These differences were statistically significant (P = 0.002 and P = 0.008 for AUC, and AUCo_ respectively. Terminal half-life was longer for the renally impaired patients (271.2 compared with 143.3; P = 0.030). There was no significant statistical difference between the groups for C, (652.9 compared with 564.7 ng ml-' for patients with impaired and normal renal function respectively: ratio 1.16; 0.91-1.46; P=0.204). There was a clear relationship between raltfitrexed clearance and creatinine clearance. Adverse events, severe (WHO grade 3 or 4) toxicity and hospitalization due to adverse events were more frequent in the group with renal impairment. Therefore, a reduction in ralftitrexed dose and increased interval between doses is recommended for patients with mild to moderate renal impairment. Keywords: pharmacokinetics; thymidylate synthase; phase I trial; raltitrexed; renal impairment Raltitrexed (Tomudex. ZD1694: Zeneca Limited) is a cytotoxic agent w-hich acts by direct and specific inhibition of thymidydlate synthase. the enzyme catalysing a critical step in de novo DNA synthesis. i.e. the production of thymidine monophosphate from deoxvuridine monophosphate. […]

Cc1nc2ccc(CN(C)c3ccc(C(=O)N[C@@H](CCC(=O)O)C(=O)O)s3)cc2c(=O)[nH]1 [raltitrexed]
Cmax estimated ratio (impaired:normal renal function) ([1]; 95% CI 0.91-1.46, P = 0.204): 1.16
AUC0-infinity estimated ratio (impaired:normal renal function) ([1]; 95% CI 1.25-3.29, P = 0.008): 2.03
AUC0-tldc estimated ratio (impaired:normal renal function) ([1]; 95% CI 1.36-2.84, P = 0.002): 1.97
AUC ([1]; both sexes, human, in vivo, AUC0-tldc, adjusted geometric least squares mean): 2450 ng·h/mL
Cmax ([1]; both sexes, human, in vivo, Cmax, adjusted geometric least squares mean): 565 ng/mL
Cmax ([1]; both sexes, human, in vivo, iv, 3 mg, Cmax (mean; SD)): 676 ng/mL
Tmax ([1]; both sexes, human, in vivo, iv, tmax (median and range)): 0.267 h
half-life ([1]; both sexes, human, in vivo, t1/2 gamma (terminal half-life), adjusted least squares mean): 271 h
Cmax, adjusted geometric least squares mean ([1]; both, human, in vivo): 652.9 ng/mL
t1/2 gamma (terminal half-life), adjusted least squares mean ([1]; both, human, in vivo): 143.3 h
tmax (median and range) ([1]; both, human, in vivo, iv): 20 (10-30) min
Cmax (mean; SD) ([1]; human, in vivo, iv, 3 mg): 567.1 ? 62.7 ng ml-1
Pain, number of patients ([2]; both, human, in vivo): 3 patients
WHO grade 3 or 4 drug-related toxicity ([2]; both, human, in vivo): No WHO grade 3 or 4 drug-related toxicity was reported
WHO grade 3 or 4 toxicity ([2]; both, human, in vivo): grade 3 or 4 toxicity was observed
Serious adverse events ([2]; renally impaired patient: Cr-EDTA clearance 28, calculated creatinine clearance 23.2 ml min-1): Death
